In the supplement of paper PMC11208160:

Assay: recombinant UMI read abundance after kanamycin selection (control-corrected) (log10(CPM+1)); higher = more efficient recombination; extreme values may be limits of the assay; sequences stand for … in AGTGCAGAGAAAATCGGCCAGTTTTCTCTGCCTGCAGTCCGCATGCCGTGGGACCCCTTGGGTTCTAACCTGTTGCCTAGATTTATGCAGCGGACTGCCTTTCTCCCAAAGTGATAAACCGG…AGGTTGGTTTCACT; site = the 11-nt donor
Outline: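 Under IPTG (0.07 mM) plus kanamycin, or without selection, Escherichia coli carrying a UMI-tagged donor and donor-binding-loop pair library and a target plasmid for the IS621 bridge recombinase were plated in two replicates. Recombinant UMIs were PCR-amplified across the donor–target junction and sequenced. Counts were converted to CPM, averaged over replicates, scaled by control-derived factors and reported as log10(CPM+1).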
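Also: IS621 bridge recombinase in Escherichia coli cells against a fixed T5 target plasmid.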

In order of falling “recombinant UMI read abundance (log10)” value:
1. GTTGGAACATGGACCGGTTTTCCCGGTAATCCGTATTTGGC (site GTTGGAACTGC)  2.55
2. GTTGGAGCATGGACCGGTTTTCCCGGTAATCCGTATTTGCA (site GTTGGAGCTTG)  2.49
3. GTTGGAGCATGGACCGGTTTTCCCGGTAATCCGTATTTGCA (site GTTAGAGCTTG)  2.17
4. GTTCGATCATGGACCGGTTTTCCCGGTAATCCGTATTTGCA (site GTTCGATCTTG)  2.08
5. GTTCGAGCATGGACCGGTTTTCCCGGTAATCCGTATTTGAT (site GTTCGAGCTAT)  1.75
6. GTTCAAGCATGGACCGGTTTTCCCGGTAATCCGTATTTGCA (site GTTCAAGCTTG)  1.62
7. GTTGAGGCATGGACCGGTTTTCCCGGTAATCCGTATTTGTG (site GTAGAGGCTCA)  1.5
8. TAAACCGCATGGACCGGTTTTCCCGGTAATCCGTATTTGCG (site TAAACCGCTCG)  1.29
9. GTTGCCTCATGGACCGGTTTTCCCGGTAATCCGTATTTGGA (site GTTGCCTCTTC)  1.21
10. GTTGGAACATGGACCGGTTTTCCCGGTAATCCGTATTTGGC (site GTTAGAACTGC)  1.13
11. GTTGAGGCATGGACCGGTTTTCCCGGTAATCCGTATTTGTG (site GTTGAGGCTCA)  1.07
12. TAAAATACATGGACCGGTTTTCCCGGTAATCCGTATTTGCA (site TACAATACTTG)  0.953
13. GTTGACACATGGACCGGTTTTCCCGGTAATCCGTATTTGAA (site GTTGACACTTT)  0.918
14. GTTGCTGCATGGACCGGTTTTCCCGGTAATCCGTATTTGGC (site GTTGCTGCTGC)  0.902
15. GTTGAGGCATGGACCGGTTTTCCCGGTAATCCGTATTTGTG (site GTCGAGGCTCA)  0.879
16. GTTGGAGCATGGACCGGTTTTCCCGGTAATCCGTATTTGCA (site GTTTGAGCTTG)  0.659
17. TAAAGACCATGGACCGGTTTTCCCGGTAATCCGTATTTGTA (site TAAAGCCCTTA)  0.624
18. TAAAATACATGGACCGGTTTTCCCGGTAATCCGTATTTGCA (site TATAATACTTG)  0.614
19. GTTTATCCATGGACCGGTTTTCCCGGTAATCCGTATTTGCT (site GTTTATCCTAG)  0.492
20. GTTGACACATGGACCGGTTTTCCCGGTAATCCGTATTTGGG (site GTTGACACTCC)  0.371
21. TAAAGAGCATGGACCGGTTTTCCCGGTAATCCGTATTTGGG (site TAAAGAGCTCC)  0.356
22. GTTGAGGCATGGACCGGTTTTCCCGGTAATCCGTATTTGTG (site GTGGAGGCTCA)  0.355
23. TAAAGACCATGGACCGGTTTTCCCGGTAATCCGTATTTGTA (site TAAAGACCTTA)  0.299
24. GTTTGCACATGGACCGGTTTTCCCGGTAATCCGTATTTGCA (site GTTTGCACTTG)  0.292
25. TAAAGACCATGGACCGGTTTTCCCGGTAATCCGTATTTGTA (site TAAAGGCCTTA)  0.257
26. TAAAGACCATGGACCGGTTTTCCCGGTAATCCGTATTTGTA (site TAAAGTCCTTA)  0.166
27. GTTGCTCCATGGACCGGTTTTCCCGGTAATCCGTATTTGGT (site GTTGGTCCTAC)  0.0466
28. GTTGAGCCATGGACCGGTTTTCCCGGTAATCCGTATTTGTG (site GTTGAGCCTCA)  0.033
29. GTTTCGGCATGGACCGGTTTTCCCGGTAATCCGTATTTGGG (site CGGGGCACTAA)  0.0198
30. GTTTGGACATGGACCGGTTTTCCCGGTAATCCGTATTTGGA (site GTTTGGACTTC)  0.0184
31. GTTGCTCCATGGACCGGTTTTCCCGGTAATCCGTATTTGGT (site GTTGTTCCTAC)  0.0159
32. GTTGATCCATGGACCGGTTTTCCCGGTAATCCGTATTTGGT (site GTTGGTCCTAC)  0.0158
33. GTTGATCCATGGACCGGTTTTCCCGGTAATCCGTATTTGGT (site GTTGCTCCTAC)  0.0151
34. GTTGTTCCATGGACCGGTTTTCCCGGTAATCCGTATTTGGA (site GTTGTTCCTTC)  0.0132
35. GTTGGTCCATGGACCGGTTTTCCCGGTAATCCGTATTTGGT (site GTTGGTCCTAC)  0.0121
36. GTTGATCCATGGACCGGTTTTCCCGGTAATCCGTATTTGGT (site GTTGTTCCTAC)  0.011
37. GTTGGTCCATGGACCGGTTTTCCCGGTAATCCGTATTTGGT (site GTTGATCCTAC)  0.0104
38. GTTGTTCCATGGACCGGTTTTCCCGGTAATCCGTATTTGGA (site GTTGTTCCTCC)  0.00995
39. TAAAACTCATGGACCGGTTTTCCCGGTAATCCGTATTTGGG (site TAAAACTCTCC)  0.00919
40. GTTGCTCCATGGACCGGTTTTCCCGGTAATCCGTATTTGGT (site GTTGCTCCTAC)  0.00908
41. GTTGGTCCATGGACCGGTTTTCCCGGTAATCCGTATTTGGT (site GTTGCTCCTAC)  0.00872
42. GTTGATCCATGGACCGGTTTTCCCGGTAATCCGTATTTGGT (site GTTGATCCTAC)  0.00442
43. GTTCGATCATGGACCGGTTTTCCCGGTAATCCGTATTTGCA (site GTTCGAGCTTG)  0.00436
44. GTTGGTCCATGGACCGGTTTTCCCGGTAATCCGTATTTGGT (site GTTGTTCCTAC)  0.00359
45. GTTCTCCCATGGACCGGTTTTCCCGGTAATCCGTATTTGCG (site GTTCTCCCTCG)  0.002
46. GTTATCCCATGGACCGGTTTTCCCGGTAATCCGTATTTGGC (site GTTATCCCTGC)  0
47. GTTCAAGCATGGACCGGTTTTCCCGGTAATCCGTATTTGCA (site GTTCCAGCTTG)  0
48. GTTCAAGCATGGACCGGTTTTCCCGGTAATCCGTATTTGCA (site GTTCGAGCTTG)  0
49. GTTCAAGCATGGACCGGTTTTCCCGGTAATCCGTATTTGCA (site GTTCTAGCTTG)  0
50. GTTCGATCATGGACCGGTTTTCCCGGTAATCCGTATTTGCA (site GTTCGAACTTG)  0
51. GTTCGATCATGGACCGGTTTTCCCGGTAATCCGTATTTGCA (site GTTCGACCTTG)  0
52. GTTGCAACATGGACCGGTTTTCCCGGTAATCCGTATTTGCC (site GTTGCAACTGG)  0
53. GTTGCTCCATGGACCGGTTTTCCCGGTAATCCGTATTTGGT (site GTTGATCCTAC)  0
54. GTTGGAACATGGACCGGTTTTCCCGGTAATCCGTATTTGGC (site GTTCGAACTGC)  0
55. GTTGGAACATGGACCGGTTTTCCCGGTAATCCGTATTTGGC (site GTTTGAACTGC)  0
56. GTTGGAGCATGGACCGGTTTTCCCGGTAATCCGTATTTGCA (site GTTCGAGCTTG)  0
57. GTTGTTCCATGGACCGGTTTTCCCGGTAATCCGTATTTGGA (site GTTGTTCCTAC)  0
58. GTTGTTCCATGGACCGGTTTTCCCGGTAATCCGTATTTGGA (site GTTGTTCCTGC)  0
59. GTTTAGCCATGGACCGGTTTTCCCGGTAATCCGTATTTGGC (site GTTTAGCCTGC)  0
60. GTTTATCCATGGACCGGTTTTCCCGGTAATCCGTATTTGCT (site GATTATCCTAG)  0
61. GTTTATCCATGGACCGGTTTTCCCGGTAATCCGTATTTGCT (site GCTTATCCTAG)  0
62. GTTTATCCATGGACCGGTTTTCCCGGTAATCCGTATTTGCT (site GGTTATCCTAG)  0
63. GTTTGAACATGGACCGGTTTTCCCGGTAATCCGTATTTGGC (site GTTAGAACTGC)  0
64. GTTTGAACATGGACCGGTTTTCCCGGTAATCCGTATTTGGC (site GTTCGAACTGC)  0
65. GTTTGAACATGGACCGGTTTTCCCGGTAATCCGTATTTGGC (site GTTGGAACTGC)  0
66. GTTTGAACATGGACCGGTTTTCCCGGTAATCCGTATTTGGC (site GTTTGAACTGC)  0
67. TAAAATACATGGACCGGTTTTCCCGGTAATCCGTATTTGCA (site TAAAATACTTG)  0
68. TAAAATACATGGACCGGTTTTCCCGGTAATCCGTATTTGCA (site TAGAATACTTG)  0
